Paper PMC9917201, “Enhanced Antibacterial Activity of Substituted Derivatives of NCR169C Peptide” (International Journal of Molecular Sciences, 2023)
Values after ≈ are worked out from the molar mass of the structure shown. Like-named read-outs stand apart in the source and are kept apart here. Non-standard residues stand in square brackets, D forms with d. Residues, ends and D or L forms follow the SMILES beside them. ξ: configuration not given here. Trp(5-F) = N[C@@H](Cc1c[nH]c2ccc(F)cc12)C(=O)O; ξTrp(5-Me) = Cc1ccc2[nH]cc(CC(N)C(=O)O)c2c1

How the values were obtained:
Assay type in all cases: cell-based
[1] = system: Acinetobacter baumannii (ATCC 17978)
Source text: (§1) The bacterial strains for the antimicrobial assay were obtained from the ATCC (American Type Culture Collection, Manassas, VA, USA) and NCTC (National Collection of Type Cultures, Salisbury, UK). Gram-negative strains were Pseudomonas aeruginosa (ATCC 27853), Escherichia coli (ATCC 8739, ATCC 35218, and ATCC 25922), Salmonella enterica (ATCC 13076), Klebsiella pneumoniae (NCTC 13440), Acinetobacter baumannii (ATCC 17978) and the Gram-positive strains were Enterococcus faecalis (ATCC 29212), Listeria monocytogenes (ATCC 19111), and Staphylococcus aureus (HNCMO112011 and ATCC 25923).
(§2) Determination of antibacterial activity for the peptides was carried out by utilizing a minimum bactericidal concentration (MBC) bioassay. Synthesized peptides were dissolved in sterile water and used from 25 to 0.125 μM in 2-fold dilution series and incubated with ~10^7 log phase bacteria in Potassium-Phosphate Buffer (PPB, pH: 7.4) for three hours as described earlier. After that, 5 μl of each sample was placed on LB agar and the growth of bacteria was monitored after overnight incubation at 37 °C. The lowest concentration of the antimicrobial agents that completely eliminated viable bacteria was considered the minimal bactericidal concentration (MBC).

[2] = system: Enterococcus faecalis (ATCC 29212)
Source text: as §1, §2

[3] = system: Escherichia coli (ATCC 8739); conditions: ATCC 8739, 3 h, pH 7.4
Source text: as §1, §2

[4] = system: Klebsiella pneumoniae (NCTC 13440); conditions: NCTC 13440, 3 h, pH 7.4
Source text: as §1, §2

[5] = system: Listeria monocytogenes (ATCC 19111); conditions: ATCC 19111, 3 h, pH 7.4
Source text: as §1, §2

[6] = system: Pseudomonas aeruginosa (ATCC 27853); conditions: ATCC 27853, 3 h, pH 7.4
Source text: as §1, §2

[7] = system: Salmonella enterica (ATCC 13076); conditions: ATCC 13076, 3 h, pH 7.4
Source text: as §1, §2

[8] = system: Staphylococcus aureus (HNCMO112011); conditions: HNCMO112011, 3 h, pH 7.4
Source text: as §1, §2

[9] = Acinetobacter baumannii ATCC 17978, ~10^7 log phase bacteria, 3 h in PPB pH 7.4, peptide 25 to 0.125 μM 2-fold series, plated on LB agar, overnight 37 °C

SMILES | Minimal bactericidal concentration (MBC) A. b. [1, 9] [µM] | Minimal bactericidal concentration (MBC) E. f. ([2]; ATCC 29212, 3 h, pH 7.4) [µM] | Minimal bactericidal concentration (MBC) E. c. [3] [µM] | Minimal bactericidal concentration (MBC) K. p. [4] [µM] | Minimal bactericidal concentration (MBC) L. m. [5] [µM] | Minimal bactericidal concentration (MBC) P. a. [6] [µM] | Minimal bactericidal concentration (MBC) S. e. [7] [µM] | Minimal bactericidal concentration (MBC) S. a. [8] [µM] | Minimal bactericidal concentration (MBC) A. b. ([1]; ATCC 17978, 3 h, pH 7.4) [µM] | Minimal bactericidal concentration (MBC) E. f. ([2]; Enterococcus faecalis ATCC 29212, ~10^7 log phase bacteria, 3 h in potassium-phosphate buffer (PPB) pH 7.4, peptide 25 to 0.125 μM 2-fold series, 5 μl on LB agar, overnight 37 °C) [µM]
CC[C@H](C)[C@H](NC(=O)[C@H](CCCCN)NC(=O)[C@H](Cc1ccccc1)NC(=O)[C@H](CC(C)C)NC(=O)[C@@H]1CCCN1C(=O)[C@H](CCCCN)NC(=O)[C@H](CCCCN)NC(=O)[C@H](CO)NC(=O)[C@@H](N)CCCCN)C(=O)NC(Cc1c[nH]c2ccc(C)cc12)C(=O)N[C@@H](CCCCN)C(=O)N[C@@H](CO)C(=O)N[C@H](C(=O)N[C@@H](CCC(=O)O)C(=O)N[C@@H](CC(N)=O)C(=O)N[C@H](C(=O)N[C@@H](CO)C(=O)N[C@H](C(=O)N[C@@H](CC(C)C)C(=O)N[C@@H](Cc1c[nH]c2ccccc12)C(=O)N[C@@H](Cc1ccc(O)cc1)C(=O)N[C@@H](CCCCN)C(N)=O)C(C)C)C(C)C)C(C)C (some centres unmarked) [NCR169C17–38C12,17/S-10W^5-Me II] (H-KSKKPLFKI[ξTrp(5-Me)]KSVENVSVLWYK-NH2; N-terminus assumed) | 3.1 (≈ 8.44 µg/mL) | 3.1 (≈ 8.44 µg/mL) | 3.1 (≈ 8.44 µg/mL) | 6.3 (≈ 17.1 µg/mL) | 3.1 (≈ 8.44 µg/mL) | 3.1 (≈ 8.44 µg/mL) | 3.1 (≈ 8.44 µg/mL) | 3.1 (≈ 8.44 µg/mL) |  | 
CC[C@H](C)[C@H](NC(=O)[C@H](CCCCN)NC(=O)[C@H](Cc1ccccc1)NC(=O)[C@H](CC(C)C)NC(=O)[C@@H]1CCCN1C(=O)[C@H](CCCCN)NC(=O)[C@H](CCCCN)NC(=O)[C@H](CO)NC(=O)[C@@H](N)CCCCN)C(=O)NC(Cc1c[nH]c2ccc(C)cc12)C(=O)N[C@@H](CCCCN)C(=O)N[C@@H](CO)C(=O)N[C@H](C(=O)N[C@@H](CCC(=O)O)C(=O)N[C@@H](CC(N)=O)C(=O)N[C@H](C(=O)N[C@@H](CO)C(=O)N[C@H](C(=O)N[C@@H](CC(C)C)C(=O)N[C@@H](Cc1c[nH]c2ccccc12)C(=O)N[C@@H](Cc1ccc(O)cc1)C(=O)N[C@@H](CCCCN)C(N)=O)C(C)C)C(C)C)C(C)C (some centres unmarked) [NCR169C17–38C12,17/S-10W^5-Me I] (H-KSKKPLFKI[ξTrp(5-Me)]KSVENVSVLWYK-NH2; N-terminus assumed) | 6.3 (≈ 17.1 µg/mL) | 3.1 (≈ 8.44 µg/mL) | 3.1 (≈ 8.44 µg/mL) | 6.3 (≈ 17.1 µg/mL) | 3.1 (≈ 8.44 µg/mL) | 3.1 (≈ 8.44 µg/mL) | 3.1 (≈ 8.44 µg/mL) | 3.1 (≈ 8.44 µg/mL) |  | 
CC[C@H](C)[C@H](NC(=O)[C@H](CCCCN)NC(=O)[C@H](Cc1ccccc1)NC(=O)[C@H](CC(C)C)NC(=O)[C@@H]1CCCN1C(=O)[C@H](CCCCN)NC(=O)[C@H](CCCCN)NC(=O)[C@H](CO)NC(=O)[C@@H](N)CCCCN)C(=O)N[C@@H](Cc1c[nH]c2ccccc12)C(=O)N[C@@H](CCCCN)C(=O)N[C@@H](CO)C(=O)N[C@H](C(=O)N[C@@H](CCC(=O)O)C(=O)N[C@@H](CC(N)=O)C(=O)N[C@H](C(=O)N[C@@H](CO)C(=O)N[C@H](C(=O)N[C@@H](CC(C)C)C(=O)N[C@@H](Cc1c[nH]c2ccc(F)cc12)C(=O)N[C@@H](Cc1ccc(O)cc1)C(=O)N[C@@H](CCCCN)C(N)=O)C(C)C)C(C)C)C(C)C [NCR169C17–38C12,17/S-20W^5-F-L] (H-KSKKPLFKIWKSVENVSVL[Trp(5-F)]YK-NH2; N-terminus assumed) |  | 3.1 (≈ 8.45 µg/mL) | 3.1 (≈ 8.45 µg/mL) | 3.1 (≈ 8.45 µg/mL) | 3.1 (≈ 8.45 µg/mL) | 6.3 (≈ 17.2 µg/mL) | 3.1 (≈ 8.45 µg/mL) | 1.6 (≈ 4.36 µg/mL) | 3.1 (≈ 8.45 µg/mL) | 
CC[C@H](C)[C@H](NC(=O)[C@H](CCCCN)NC(=O)[C@H](Cc1ccccc1)NC(=O)[C@H](CC(C)C)NC(=O)[C@@H]1CCCN1C(=O)[C@H](CCCCN)NC(=O)[C@H](CCCCN)NC(=O)[C@H](CO)NC(=O)[C@@H](N)CCCCN)C(=O)N[C@@H](Cc1c[nH]c2ccccc12)C(=O)N[C@@H](CCCCN)C(=O)N[C@@H](CO)C(=O)N[C@H](C(=O)N[C@@H](CCC(=O)O)C(=O)N[C@@H](CC(N)=O)C(=O)N[C@H](C(=O)N[C@@H](CO)C(=O)N[C@H](C(=O)N[C@@H](CC(C)C)C(=O)NC(Cc1c[nH]c2ccc(C)cc12)C(=O)N[C@@H](Cc1ccc(O)cc1)C(=O)N[C@@H](CCCCN)C(N)=O)C(C)C)C(C)C)C(C)C (some centres unmarked) [NCR169C17–38C12,17/S-20W^5-Me II] (H-KSKKPLFKIWKSVENVSVL[ξTrp(5-Me)]YK-NH2; N-terminus assumed) |  |  | 1.6 (≈ 4.35 µg/mL) | 3.1 (≈ 8.44 µg/mL) | 3.1 (≈ 8.44 µg/mL) | 3.1 (≈ 8.44 µg/mL) | 3.1 (≈ 8.44 µg/mL) | 3.1 (≈ 8.44 µg/mL) | 3.1 (≈ 8.44 µg/mL) | 25 (≈ 68 µg/mL)
CC[C@H](C)[C@H](NC(=O)[C@H](CCCCN)NC(=O)[C@H](Cc1ccccc1)NC(=O)[C@H](CC(C)C)NC(=O)[C@@H]1CCCN1C(=O)[C@H](CCCCN)NC(=O)[C@H](CCCCN)NC(=O)[C@H](CO)NC(=O)[C@@H](N)CCCCN)C(=O)N[C@@H](C)C(=O)N[C@@H](CCCCN)C(=O)N[C@@H](CO)C(=O)N[C@H](C(=O)N[C@@H](CCC(=O)O)C(=O)N[C@@H](CC(N)=O)C(=O)N[C@H](C(=O)N[C@@H](CO)C(=O)N[C@H](C(=O)N[C@@H](CC(C)C)C(=O)N[C@@H](C)C(=O)N[C@@H](Cc1ccc(O)cc1)C(=O)N[C@@H](CCCCN)C(N)=O)C(C)C)C(C)C)C(C)C [NCR169C17–38W10,20/A,C12,17/S] (H-KSKKPLFKIAKSVENVSVLAYK-NH2) |  | 25 (≈ 61.9 µg/mL) | 6.3 (≈ 15.6 µg/mL) |  | 3.1 (≈ 7.68 µg/mL) | 3.1 (≈ 7.68 µg/mL) | 6.3 (≈ 15.6 µg/mL) | 6.3 (≈ 15.6 µg/mL) | 12.5 (≈ 31 µg/mL) | 
CC[C@H](C)[C@H](NC(=O)[C@H](CCCCN)NC(=O)[C@H](Cc1ccccc1)NC(=O)[C@H](CC(C)C)NC(=O)[C@@H]1CCCN1C(=O)[C@H](CCCCN)NC(=O)[C@H](CCCCN)NC(=O)[C@H](CO)NC(=O)[C@@H](N)CCCCN)C(=O)N[C@@H](C)C(=O)N[C@@H](CCCCN)C(=O)N[C@@H](C)C(=O)N[C@H](C(=O)N[C@@H](CCC(=O)O)C(=O)N[C@@H](CC(N)=O)C(=O)N[C@H](C(=O)N[C@@H](C)C(=O)N[C@H](C(=O)N[C@@H](CC(C)C)C(=O)N[C@@H](C)C(=O)N[C@@H](Cc1ccc(O)cc1)C(=O)N[C@@H](CCCCN)C(N)=O)C(C)C)C(C)C)C(C)C [NCR169C17–38W10,20C12,17/A] (H-KSKKPLFKIAKAVENVAVLAYK-NH2) |  |  | 6.3 (≈ 15.4 µg/mL) |  |  | 3.1 (≈ 7.58 µg/mL) | 6.3 (≈ 15.4 µg/mL) | 6.3 (≈ 15.4 µg/mL) | 12.5 (≈ 30.6 µg/mL) | 
